According to patent publication US8198273B2, “Compounds and methods for kinase modulation, and indications therefor” (Plexxikon Inc., priority 2009, dated 2012):

Columns and labels:
B-Raf V600E = B-Raf V600E (Homo sapiens, UniProt P15056, V600E); assay: B-Raf V600E biochemical kinase inhibition (AlphaScreen, biotin-MEK1 substrate); conditions: 100 μM ATP
Procedure, shortened: (§1)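 Raf kinases phosphorylating biotin-MEK1, reaction started with ATP at 100 μM final. Compounds tested at 8 points by serial dilution from a 0.1 mM DMSO stock.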

[1] = Relative solubility by turbidity in aqueous buffers of varying pH; assay type: physicochemical; conditions: for turbidity threshold (L, M, H) 7.4: HEPES pH 7.4; for turbidity threshold (L, M, H) 4.5: SIF pH 4.5; for turbidity threshold (L, M, H) 6.8: SIF pH 6.8; for turbidity threshold (L, M, H) 1.4: buffer pH 1.4 (SGF)
Procedure, shortened: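 Turbidity endpoint: concentration where optical density at 490, 535 and 650 nm exceeds 0.01, three-wavelength average used. Buffers at pH 1.5, 4.5, 6.8 and 7.4; DMSO serial dilutions of 25 mM stock spiked 1 μL into 99 μL buffer. Low <31.3, moderate 31.3–250, high >250 μM.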

c-Raf-1 = c-Raf-1 (Homo sapiens, UniProt P04049); assay: c-Raf-1 biochemical kinase inhibition (AlphaScreen, biotin-MEK1 substrate); conditions: 100 μM ATP
Sequence of c-Raf-1 (P04049 whole entry): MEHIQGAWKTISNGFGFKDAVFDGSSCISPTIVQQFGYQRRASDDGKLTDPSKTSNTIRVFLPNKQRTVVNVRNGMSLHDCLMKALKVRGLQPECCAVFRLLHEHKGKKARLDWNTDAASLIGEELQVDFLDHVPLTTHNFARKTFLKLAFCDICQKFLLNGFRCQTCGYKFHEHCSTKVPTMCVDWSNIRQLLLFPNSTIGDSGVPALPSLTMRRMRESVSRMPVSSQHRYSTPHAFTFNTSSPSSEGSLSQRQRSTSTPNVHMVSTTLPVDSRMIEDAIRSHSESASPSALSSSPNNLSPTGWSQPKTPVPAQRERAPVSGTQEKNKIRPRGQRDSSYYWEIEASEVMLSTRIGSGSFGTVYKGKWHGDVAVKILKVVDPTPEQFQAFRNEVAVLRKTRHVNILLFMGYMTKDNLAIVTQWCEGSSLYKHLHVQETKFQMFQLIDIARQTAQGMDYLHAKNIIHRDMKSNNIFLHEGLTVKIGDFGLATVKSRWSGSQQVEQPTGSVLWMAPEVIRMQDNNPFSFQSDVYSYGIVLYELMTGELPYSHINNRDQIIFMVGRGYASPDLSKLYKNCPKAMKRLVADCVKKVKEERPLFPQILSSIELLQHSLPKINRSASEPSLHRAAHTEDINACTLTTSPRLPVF
Procedure, shortened: as §1

CYP2D6 = CYP2D6 (Homo sapiens, UniProt P10635); assay: CYP2D6 inhibition (fluorescent substrate); assay type: in vitro ADME; conditions: CYP2D6, AMMC substrate; read-out: Cyp IC50 2D6
Sequence of CYP2D6 (P10635 whole entry): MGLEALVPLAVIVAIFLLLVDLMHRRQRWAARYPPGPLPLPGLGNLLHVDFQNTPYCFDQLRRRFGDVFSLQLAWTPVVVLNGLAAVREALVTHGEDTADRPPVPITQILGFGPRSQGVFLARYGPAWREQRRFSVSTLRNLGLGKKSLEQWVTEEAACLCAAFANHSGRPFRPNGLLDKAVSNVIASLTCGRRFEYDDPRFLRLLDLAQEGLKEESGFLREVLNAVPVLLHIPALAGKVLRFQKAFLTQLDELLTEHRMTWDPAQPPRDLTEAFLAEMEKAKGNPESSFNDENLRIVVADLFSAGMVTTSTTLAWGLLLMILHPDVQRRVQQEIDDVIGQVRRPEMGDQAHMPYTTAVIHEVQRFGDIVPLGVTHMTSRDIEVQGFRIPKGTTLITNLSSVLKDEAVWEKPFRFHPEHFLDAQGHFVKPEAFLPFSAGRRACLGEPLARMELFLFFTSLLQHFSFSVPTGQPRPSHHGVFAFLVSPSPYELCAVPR
Procedure, shortened: (§2)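 Human CYP activity was followed by the fluorescence of the metabolized product of a known substrate, which falls as metabolism is inhibited. Compounds from 100 mM DMSO stocks were serially diluted 1:1 over 10 points in co-factor mix and preincubated 10 min at 37 °C. IC50 was fitted from signal versus concentration.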

CYP2C19 = CYP2C19 (Homo sapiens, UniProt P33261); assay: CYP2C19 inhibition (fluorescent substrate); assay type: in vitro ADME; conditions: CYP2C19, CEC substrate; read-out: Cyp IC50 2C19
Sequence of CYP2C19 (P33261 whole entry): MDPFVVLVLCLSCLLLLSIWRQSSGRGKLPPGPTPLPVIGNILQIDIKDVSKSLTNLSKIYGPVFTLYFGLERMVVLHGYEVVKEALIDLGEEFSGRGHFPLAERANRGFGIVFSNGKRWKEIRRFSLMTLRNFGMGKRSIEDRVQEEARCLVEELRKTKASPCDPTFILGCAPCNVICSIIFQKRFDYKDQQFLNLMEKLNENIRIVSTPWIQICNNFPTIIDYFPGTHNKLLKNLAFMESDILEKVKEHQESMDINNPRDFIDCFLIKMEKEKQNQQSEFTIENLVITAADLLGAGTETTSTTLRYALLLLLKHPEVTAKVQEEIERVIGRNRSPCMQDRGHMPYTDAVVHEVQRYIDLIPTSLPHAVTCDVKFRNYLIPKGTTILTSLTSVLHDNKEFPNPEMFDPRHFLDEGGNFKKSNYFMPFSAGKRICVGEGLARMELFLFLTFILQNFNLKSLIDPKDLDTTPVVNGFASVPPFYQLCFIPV
Procedure, shortened: as §2

Sequence of B-Raf V600E (P15056 whole entry V600E): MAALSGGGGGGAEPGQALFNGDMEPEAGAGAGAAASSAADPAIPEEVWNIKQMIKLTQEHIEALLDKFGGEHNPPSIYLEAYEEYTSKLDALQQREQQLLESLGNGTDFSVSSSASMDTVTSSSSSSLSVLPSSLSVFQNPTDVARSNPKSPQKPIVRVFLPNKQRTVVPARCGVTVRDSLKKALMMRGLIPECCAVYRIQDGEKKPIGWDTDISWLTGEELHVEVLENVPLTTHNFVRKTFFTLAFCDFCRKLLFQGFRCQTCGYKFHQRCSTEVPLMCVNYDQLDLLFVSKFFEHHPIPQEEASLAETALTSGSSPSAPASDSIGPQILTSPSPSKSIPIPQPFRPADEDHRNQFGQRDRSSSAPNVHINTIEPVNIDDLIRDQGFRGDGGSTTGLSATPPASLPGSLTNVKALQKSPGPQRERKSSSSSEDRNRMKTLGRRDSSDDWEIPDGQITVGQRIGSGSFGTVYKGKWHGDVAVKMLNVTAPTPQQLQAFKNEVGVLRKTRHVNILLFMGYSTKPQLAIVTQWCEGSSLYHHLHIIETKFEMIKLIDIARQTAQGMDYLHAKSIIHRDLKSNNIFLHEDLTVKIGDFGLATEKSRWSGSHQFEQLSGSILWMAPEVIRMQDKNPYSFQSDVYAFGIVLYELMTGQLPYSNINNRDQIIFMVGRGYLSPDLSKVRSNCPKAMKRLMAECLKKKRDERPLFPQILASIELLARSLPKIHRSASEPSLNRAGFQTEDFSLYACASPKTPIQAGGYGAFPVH

SMILES	IC50 (B-Raf V600E) [µM]	turbidity threshold (L, M, H) 7.4 [1]	turbidity threshold (L, M, H) 4.5 [1]	turbidity threshold (L, M, H) 6.8 [1]	turbidity threshold (L, M, H) 1.4 [1]	IC50 (c-Raf-1) [µM]	IC50 (CYP2D6) [µM]	IC50 (CYP2C19) [µM]
CCCS(=O)(=O)Nc1ccc(F)c(C(=O)c2c[nH]c3ncc(-c4ccc(N5CCCC5)nc4)cc23)c1F [P-2231, Propane-1-sulfonic acid {2,4-difluoro-3-[5-(6-pyrrolidin-1-yl-pyridin-3-yl)-1H-pyrrolo[2,3-b]pyridine-3-carbonyl]-phenyl}-amide]	< 0.01	L (low solubility if the threshold concentration is <31.3 04)	L (low solubility if the threshold concentration is <31.3 04)	L (low solubility if the threshold concentration is <31.3 04)	L (low solubility if the threshold concentration is <31.3 04)	< 0.1	> 10	5 to 10
CCCS(=O)(=O)Nc1ccc(F)c(C(=O)c2c[nH]c3ncc(-c4cn[nH]c4)cc23)c1F [P-2174, Propane-1-sulfonic acid {2,4-difluoro-3-[5-(1H-pyrazol-4-yl)-1H-pyrrolo[2,3-b]pyridine-3-carbonyl]-phenyl}-amide]	< 0.01	L (low solubility if the threshold concentration is <31.3 04)	L (low solubility if the threshold concentration is <31.3 04)	L (low solubility if the threshold concentration is <31.3 04)	L (low solubility if the threshold concentration is <31.3 04)	< 0.01	5 to 10	5 to 10
COc1cnc2[nH]cc(C(=O)c3c(F)ccc(NS(=O)(=O)c4cc(F)ccc4F)c3F)c2c1 [P-2010, N-[2,4-Difluoro-3-(5-methoxy-1H-pyrrolo[2,3-b]pyridine-3-carbonyl)-phenyl]-2,5-difluoro-benzenesulfonamide]	< 0.01	M (moderate solubility if the threshold concentration is 31.3 μM to 250 μM)	L (low solubility if the threshold concentration is <31.3 04)	M (moderate solubility if the threshold concentration is 31.3 μM to 250 μM)	L (low solubility if the threshold concentration is <31.3 04)	< 0.01	> 10	> 10
CCCS(=O)(=O)Nc1ccc(F)c(C(=O)c2c[nH]c3ncc(-c4ccc(F)nc4)cc23)c1F [P-2155, Propane-1-sulfonic acid {2,4-difluoro-3-[5-(6-fluoro-pyridin-3-yl)-1H-pyrrolo[2,3-b]pyridine-3-carbonyl]-phenyl}-amide]	< 0.01	L (low solubility if the threshold concentration is <31.3 04)	L (low solubility if the threshold concentration is <31.3 04)	L (low solubility if the threshold concentration is <31.3 04)	L (low solubility if the threshold concentration is <31.3 04)	< 0.01	> 10	5 to 10
CCCS(=O)(=O)Nc1ccc(F)c(C(=O)c2c[nH]c3ncc(-c4ccc(C#CCN(CC)CC)nc4)cc23)c1F [P-2222, Propane-1-sulfonic acid (3-{5-[6-(3-diethylamino-prop-1-ynyl)-pyridin-3-yl]-1H-pyrrolo[2,3-b]pyridine-3-carbonyl}-2,4-difluoro-phenyl)-amide]	< 0.01	L (low solubility if the threshold concentration is <31.3 04)	L (low solubility if the threshold concentration is <31.3 04)	L (low solubility if the threshold concentration is <31.3 04)	L (low solubility if the threshold concentration is <31.3 04)	< 0.01	5 to 10	< 5
O=C(c1c(F)ccc(NS(=O)(=O)c2c(F)cccc2F)c1F)c1c[nH]c2ncc(Cl)cc12 [P-2003, N-[3-(5-Chloro-1H-pyrrolo[2,3-b]pyridine-3-carbonyl)-2,4-difluoro-phenyl]-2,6-difluoro-benzenesulfonamide]	< 0.1	H (high solubility if the threshold concentration is >250 μM)	M (moderate solubility if the threshold concentration is 31.3 μM to 250 μM)	M (moderate solubility if the threshold concentration is 31.3 μM to 250 μM)	M (moderate solubility if the threshold concentration is 31.3 μM to 250 μM)	< 0.01	> 10	> 10
CCCS(=O)(=O)Nc1ccc(F)c(C(=O)c2c[nH]c3ncc(-c4ccc(S(=O)(=O)NC5CC5)cc4)cc23)c1F [P-2168, N-Cyclopropyl-4-{3-[2,6-difluoro-3-(propane-1-sulfonylamino)-benzoyl]-1H-pyrrolo[2,3-b]pyridin-5-yl}-benzenesulfonamide]	< 0.01	L (low solubility if the threshold concentration is <31.3 04)	L (low solubility if the threshold concentration is <31.3 04)	L (low solubility if the threshold concentration is <31.3 04)	L (low solubility if the threshold concentration is <31.3 04)	< 0.01	> 10	5 to 10
CCCS(=O)(=O)Nc1ccc(F)c(C(=O)c2c[nH]c3ncc(-c4ccc(OCCCN(C)C)nc4)cc23)c1F [P-2178, Propane-1-sulfonic acid (3-{5-[6-(3-dimethylamino-propoxy)-pyridin-3-yl]-1H-pyrrolo[2,3-b]pyridine-3-carbonyl}-2,4-difluoro-phenyl)-amide]	< 0.01	L (low solubility if the threshold concentration is <31.3 04)	M (moderate solubility if the threshold concentration is 31.3 μM to 250 μM)	L (low solubility if the threshold concentration is <31.3 04)	H (high solubility if the threshold concentration is >250 μM)	< 0.01	> 10	5 to 10
Cc1cnc2[nH]cc(C(=O)c3c(F)ccc(NS(=O)(=O)c4cc(F)ccc4F)c3F)c2c1 [P-2015, N-[2,4-Difluoro-3-(5-methyl-1H-pyrrolo[2,3-b]pyridine-3-carbonyl)-phenyl]-2,5-difluoro-benzenesulfonamide]	< 0.01	M (moderate solubility if the threshold concentration is 31.3 μM to 250 μM)	L (low solubility if the threshold concentration is <31.3 04)	M (moderate solubility if the threshold concentration is 31.3 μM to 250 μM)	M (moderate solubility if the threshold concentration is 31.3 μM to 250 μM)	< 0.01	> 10	5 to 10
CCCS(=O)(=O)Nc1ccc(F)c(C(=O)c2c[nH]c3ncc(-c4cnc(N(C)C)nc4)cc23)c1F [P-2196, Propane-1-sulfonic acid {3-[5-(2-dimethylamino-pyrimidin-5-yl)-1H-pyrrolo[2,3-b]pyridine-3-carbonyl]-2,4-difluoro-phenyl}-amide]	< 0.01	L (low solubility if the threshold concentration is <31.3 04)	L (low solubility if the threshold concentration is <31.3 04)	L (low solubility if the threshold concentration is <31.3 04)	M (moderate solubility if the threshold concentration is 31.3 μM to 250 μM)	< 0.01	> 10	> 10
Cc1cnc2[nH]cc(C(=O)c3c(F)ccc(NS(=O)(=O)c4c(F)cccc4F)c3F)c2c1 [P-2024, N-[2,4-Difluoro-3-(5-methyl-1H-pyrrolo[2,3-b]pyridine-3-carbonyl)-phenyl]-2,6-difluoro-benzenesulfonamide]	< 0.1	M (moderate solubility if the threshold concentration is 31.3 μM to 250 μM)	L (low solubility if the threshold concentration is <31.3 04)	M (moderate solubility if the threshold concentration is 31.3 μM to 250 μM)	M (moderate solubility if the threshold concentration is 31.3 μM to 250 μM)	< 0.01	> 10	> 10
CCCS(=O)(=O)Nc1ccc(F)c(C(=O)c2c[nH]c3ncc(-c4cncnc4)cc23)c1F [P-2162, Propane-1-sulfonic acid [2,4-difluoro-3-(5-pyrimidin-5-yl-1H-pyrrolo[2,3-b]pyridine-3-carbonyl)-phenyl]-amide]	< 0.01	M (moderate solubility if the threshold concentration is 31.3 μM to 250 μM)	M (moderate solubility if the threshold concentration is 31.3 μM to 250 μM)	M (moderate solubility if the threshold concentration is 31.3 μM to 250 μM)	M (moderate solubility if the threshold concentration is 31.3 μM to 250 μM)	< 0.01	> 10	> 10
